Measurements taken from patent US20110105436A1, “HETEROARYL COMPOUNDS, COMPOSITIONS, AND METHODS OF USE IN CANCER TREATMENT” (AUCKLAND UNISERVICES LIMITED, priority 2008, published 2011).

How the values were obtained:
[1] = tested on: LC3; experiment: LC3 processing by Western blot and immunostaining; assay type: cell-based; details: co-treatment with 1.25 μM STF-62247, 20 hrs, VHL-deficient RCC cells
Method: (§1) Western blot analysis. After treatments, cells were lysed in urea buffer (9M urea, 75 mM Tris (pH 7.5), 150 mM b-mercaptoethanol), placed on ice for 10 minutes and sonicated briefly (15 seconds). Extracts were centrifugated at 8,000×g for 10 minutes to eliminate insoluble material. Lysates were quantitated using Bio-Rad protein Assay (Bio-Rad Laboratories) and 20-30 μg of proteins were separated on a 7.5% or 15% bis-acrylamide gels and then transferred onto PVDF membranes. Proteins were visualized using HIF-2α (Novus Biological), HIF-1α, pVHL and BiP (BD Biosciences), LC3 (MBL), Atg5, or α-tubulin antibodies.
Immunofluorescence staining. Cells were seeded on glass coverslips and at subconfluence, STF-62247 was added at 1.25 μM for RCC4 and 3.75 μM for SN12C. After 20 hours, cells were fixed in 3.7% formaldehyde for 10 min at room temperature and washed in PBS. Then cells were permeabilized in 0.2% Triton X-100 for 5 min at room temperature and washed in PBS. The coverslips were incubated with primary antibody LC3 diluted 1:500 in PBS containing 0.2% BSA for 1 hour at room temperature. Cells were washed three times in PBS-BSA and the bound primary antibody was detected using a fluorescein-conjugated secondary antibody (ALEXA) diluted 1:500 in PBS-BSA and incubated for 1 hour. Coverslips were washed and mounted in mounting medium from Vector Laboratories according to the manufacturer's instructions. Cells were examined with a confocal microscope
A. Phase contrast pictures of VHL-deficient RCC4 and SN12C-VHL shRNA cells and VHL-positive cells RCC4 and SN12C after 20 hrs of 1.25 μM STF-62247. B. Immunostaining for LC3 following STF-62247 treatment at 1.25 μM for 20 hrs with or without 2 mM of 3-MA in RCC4 with and without VHL cells. After treatment, cells were fixed, permeabilized and processed for the detection of punctuate staining by indirect immunofluorescence. C. Autophagic vacuoles stained with monodansylcadaverine (MDC). After STF-62247 treatment in the same conditions, MDC was added for the last 10 minutes. Cells were fixed, washed with PBS and observed directly under microscope. D. Western blot for LC3 in RCC4, RCC4/VHL, SN12C, and SN12C-VHL shRNA cells after STF-62247 treatment with or without 3-MA. Nutrient starvation (EBSS) is used as positive control. E. Western blot for LC3 in RCC4 and RCC4/VHL with different concentrations of STF-62247. Tubulin was used as loading control. F. Cell viability assay in VHL-deficient RCC4 and wild-type VHL cells treated with 1 mM of 3-MA, 1.25 μM of STF-62247 alone or in combination for 24 hrs. Viability is measured by trypan blue exclusion assay and is represented by the average of three different experiments in duplicate as the percent of treated on untreated cells. The error bars are represented as SEM.
A. VHL-deficient RCC4 and wild-type VHL were incubated in presence of 10 μM LY294002, or 1 μg/mlBrefeldin A with 1.25 μM of STF-62247 for 20 hrs and the presence of vacuoles was examined under light microscopy. B,C. LC3 processing was evaluated by Western blot after the treatment with Brefeldin A or LY294002 in presence or absence of STF-62247 as described above. Tubulin was used as loading control. D. Cells were treated with 1.25 μM of STF-62247 with or without 2 mM of 3-MA, 1 μg/ml of Brefeldin A for 20 hrs. For the last 15 min, acidic components were stained with 1 μg/ml of acridine orange and visualized under fluorescence microscope. […] F. Quantification of the FACS analysis. The data are calculated as the average of three different experiments as relative units of treated over untreated cells. The error bars are represented as the standard error of the mean (SEM).
B,C. LC3 processing was evaluated by Western blot after the treatment with U0126 or tunicamycin in presence or absence of STF-62247 as described above. Tubulin was used as loading control.

[2] = tested on: BiP (Grp78); experiment: Western blot for BiP (ER stress); assay type: cell-based; details: 2 μg/ml tunicamycin, FIG. 9C
Method: as §1
B,C. LC3 processing was evaluated by Western blot after the treatment with U0126 or tunicamycin in presence or absence of STF-62247 as described above. Tubulin was used as loading control. D. FACS analysis to measure the acidic vesicle organelles after staining with acridine orange in SN12C and SN12C-VHL shRNA following treatment with STF-62247 for 24 hours. E. AVO quantification from the FACS analysis in A. F. Autophagic vacuoles stained with MDC. After STF-62247 treatment with or without 3-MA, NH4Cl, MDC was added the last 10 minutes. Then, cells were fixed, washed with PBS and observed directly under microscope.

tunicamycin [reference compound]
effect of inhibitor on vacuole formation and LC3-II induced by STF-62247 [1]: no vacuole or LC3 processing was observed
BiP (Grp78), marker of ER stress [2]: induced BiP (Grp78)
